Data from ChEMBL document CHEMBL4842391, “Discovery and Nanosized Preparations of (S,R)-Tylophorine Malate as Novel anti-SARS-CoV-2 Agents” (ACS Med Chem Lett, 2021).
Activity calls are given as the source filed them. The rule behind the calls is not given here.

Key:
[1] = Toxicity in Hamster rat infected with SARS-CoV-2 C-Tan-nCoV Wuhan strain 01 assessed as body weight loss at 5 mg/kg, inh measured after 4 days; assay type: organism-based; conditions: in vivo, inhaled_or_intranasal, 96 h, time 4 day
[2] = tested on: SARS-CoV-2; assay: Antiviral activity against SARS-CoV-2 C-Tan-nCoV Wuhan strain 01 infected in African green monkey Vero cells assessed as inhibition of viral replication measured after 48 hrs by RT-qPCR method; assay type: functional, organism-based; conditions: Severe acute respiratory syndrome coronavirus 2, C-Tan-nCoV Wuhan strain 01, Vero
[3] = Cytotoxicity against African green monkey Vero cells; assay type: cell-based; conditions: chlorocebus sabaeus
[4] = Safety index, ratio of CC50 for African green monkey Vero cells to EC50 for antiviral activity against SARS-CoV-2 C-Tan-nCoV Wuhan strain 01 infected in African green monkey Vero cells; assay type: toxicity; conditions: read-out: Ratio CC50/EC50
[5] = tested on: SARS-CoV-2; assay: Antiviral activity against SARS-CoV-2 C-Tan-nCoV Wuhan strain 01 virus infected in Hamster rat assessed as infiltration of lymphocytes at 25 mg/kg, inh administered for 3 days starting from 1 hr post infection and measured on day 4 by histopathological analysis; assay type: functional, organism-based; conditions: Severe acute respiratory syndrome coronavirus 2, time 4.0 day
[6] = tested on: SARS-CoV-2; assay: Antiviral activity against SARS-CoV-2 C-Tan-nCoV Wuhan strain 01 virus infected in Hamster rat assessed as widening of perivascular interstitium at 5 mg/kg, inh administered for 3 days starting from 1 hr post infection and measured on day 4 by histopathological analysis; assay type: functional, organism-based; conditions: Severe acute respiratory syndrome coronavirus 2, time 4.0 day
[7] = tested on: SARS-CoV-2; assay: Antiviral activity against SARS-CoV-2 C-Tan-nCoV Wuhan strain 01 virus infected in Hamster rat assessed as widening of alveolar septum at 25 mg/kg, inh administered for 3 days starting from 1 hr post infection and measured on day 4 by histopathological analysis; assay type: functional, organism-based; conditions: Severe acute respiratory syndrome coronavirus 2, time 4.0 day
[8] = tested on: SARS-CoV-2; assay: Antiviral activity against SARS-CoV-2 C-Tan-nCoV Wuhan strain 01 virus infected in Hamster rat assessed as infiltration of lymphocytes at 5 mg/kg, inh administered for 3 days starting from 1 hr post infection and measured on day 4 by histopathological analysis; assay type: functional, organism-based; conditions: Severe acute respiratory syndrome coronavirus 2, time 4.0 day
[9] = tested on: SARS-CoV-2; assay: Antiviral activity against SARS-CoV-2 C-Tan-nCoV Wuhan strain 01 virus infected in Hamster rat assessed as widening of alveolar septum at 5 mg/kg, inh administered for 3 days starting from 1 hr post infection and measured on day 4 by histopathological analysis; assay type: functional, organism-based; conditions: Severe acute respiratory syndrome coronavirus 2, time 4.0 day
[10] = tested on: SARS-CoV-2; assay: Antiviral activity against SARS-CoV-2 C-Tan-nCoV Wuhan strain 01 virus infected in Hamster rat assessed as widening of perivascular interstitium at 25 mg/kg, inh administered for 3 days starting from 1 hr post infection and measured on day 4 by histopathological analysis; assay type: functional, organism-based; conditions: Severe acute respiratory syndrome coronavirus 2, time 4.0 day
[11] = tested on: SARS-CoV-2; assay: Antiviral activity against SARS-CoV-2 C-Tan-nCoV Wuhan strain 01 virus infected in Hamster rat assessed as widening of bronchus at 25 mg/kg, inh administered for 3 days starting from 1 hr post infection and measured on day 4 by histopathological analysis; assay type: functional, organism-based; conditions: Severe acute respiratory syndrome coronavirus 2, time 4.0 day
[12] = tested on: SARS-CoV-2; assay: Antiviral activity against SARS-CoV-2 C-Tan-nCoV Wuhan strain 01 virus infected in Hamster rat assessed as infiltration of neutrophils at 25 mg/kg, inh administered for 3 days starting from 1 hr post infection and measured on day 4 by histopathological analysis; assay type: functional, organism-based; conditions: Severe acute respiratory syndrome coronavirus 2, time 4.0 day
[13] = tested on: SARS-CoV-2; assay: Antiviral activity against SARS-CoV-2 C-Tan-nCoV Wuhan strain 01 virus infected in Hamster rat assessed as widening of bronchus at 5 mg/kg, inh administered for 3 days starting from 1 hr post infection and measured on day 4 by histopathological analysis; assay type: functional, organism-based; conditions: Severe acute respiratory syndrome coronavirus 2, time 4.0 day
[14] = Toxicity in Hamster rat infected with SARS-CoV-2 C-Tan-nCoV Wuhan strain 01 assessed as body weight loss at 25 mg/kg, inh measured after 4 days; assay type: organism-based; conditions: in vivo, inhaled_or_intranasal, 96 h, time 4 day
[15] = tested on: SARS-CoV-2; assay: Antiviral activity against SARS-CoV-2 C-Tan-nCoV Wuhan strain 01 virus infected in Hamster rat assessed as infiltration of neutrophils at 5 mg/kg, inh administered for 3 days starting from 1 hr post infection and measured on day 4 by histopathological analysis; assay type: functional, organism-based; conditions: Severe acute respiratory syndrome coronavirus 2, time 4.0 day

Compound	Activity [1]	EC50 [2] [nM]	CC50 [3] [nM]	selectivity ratio [4]	Activity [5]	Activity [6]	Activity [7]	Activity [8]	Activity [9]	Activity [10]	Activity [11]	Activity [12]	Activity [13]	Activity [14]	Activity [15]
COc1cc2c3c(c4cc(OC)c(OC)cc4c2cc1OC)CN1CCC[C@H]1C3.O=C(O)C[C@@H](O)C(=O)O	Non-Toxic	30	26200	268	–	–	–	–	–	–	–	–	–	–	–
CCC(CC)COC(=O)[C@H](C)N[P@](=O)(OC[C@H]1O[C@@](C#N)(c2ccc3c(N)ncnn23)[C@H](O)[C@@H]1O)Oc1ccccc1 [REMDESIVIR]	–	800	–	–	Active	Active	Active	Active	Active	Active	Active	Active	Active	Non-Toxic	Active
